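These data come from cells grown in 96-well plates and exposed to compound for 48 hours at five concentrations. At the GI50, growth is halved. TGI marks complete inhibition of growth.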

What all share (experiment): NCI anticancer screen, dose series, 48 h
Assay [1] concerns MALME-3M melanoma.
Assay [2] has as its system BT-549 breast.
For assay [3], the system named is RPMI-8226 leukemia.
The subject of assay [4] is NCI-H23 lung.
In assay [5] the test system is MCF7 breast.
For assay [6], the system named is SF-295 CNS.
In assay [7] the test system is SR leukemia.
For assay [8], the system named is OVCAR-8 ovarian.
The subject of assay [9] is OVCAR-4 ovarian.
For assay [10], the system named is SK-MEL-5 melanoma.

As for `CC1(C)N=C(N)N=C(N)N1c1ccc(Cl)c(Cl)c1`, the GI50 in assay [1] is 32 µM; in assay [2], 6.66 µM; in [4], 0.453 µM; in assay [5] it was 0.388 µM; in [6], 0.304 µM; in assay [7] it was 31.3 µM. The GI50 in assay [8] was 0.202 µM; in [9], 10.9 µM; in assay [10], 0.547 µM. The TGI in assay [1], in [2], in [3], in assay [4], in assay [5] and in assay [7] was > 100 µM each time. The TGI in assay [8], in assay [9] and in [10] was > 100 µM in each case.

`CNC(=O)c1cc2c(Oc3ccc(NC(=S)NC(=O)Cc4ccccc4)cc3F)ccnc2cc1OC`: the GI50 is 8.85 µM in [1]; 2.91 µM in [2]; > 28.3 µM in [3]; 3.13 µM in assay [4]; > 100 µM in assay [5]; 0.196 µM in assay [6]. Besides, the GI50 is 5.78 µM in assay [7], > 100 µM in [8], 5.44 µM in assay [9] and > 20.6 µM in assay [10]. Moreover, the TGI in [1] was > 100 µM; in [2], > 28.7 µM; in [3], > 100 µM; in [4], > 100 µM; in assay [5] it was > 100 µM; in assay [6] it was > 100 µM. For the same molecule, the TGI in [7], in assay [8], in [9] and in assay [10] was > 100 µM each time.

As to `C#C/C=C/CC1OC(C(Br)CC)CC(Br)C2CC1O2` (stereo not drawn), the TGI is 25.7 µM in assay [1]; > 100 µM in assay [2]; > 100 µM in assay [3]; > 100 µM in assay [4]; > 100 µM in assay [5]; > 100 µM in assay [6]. Further, the TGI in assay [7], in [8], in [9] and in assay [10] was > 100 µM throughout.

`Cn1c2ccccc2c2nnc(NNCc3ccccn3)nc21`: the GI50 was 0.4 µM in assay [1]; 0.729 µM in assay [2]; 0.589 µM in [3]; 0.421 µM in assay [4]; 0.372 µM in [5]; 0.397 µM in assay [6]. The GI50 was 0.311 µM in [7], 0.429 µM in assay [8], 0.451 µM in assay [9] and 0.271 µM in assay [10]. Further, the TGI in [1] was 4.37 µM; in assay [2], 14.9 µM; in assay [3], 18.4 µM; in assay [4], 6.15 µM; in [5] it was 14.5 µM; in assay [6], 12.4 µM. The TGI in assay [7] was 18.7 µM; in [8], 20.5 µM; in assay [9], 13.9 µM; in assay [10], 1.65 µM.

For the molecule `O=Nc1c(O)c2ccccc2c2ccccc12`, the GI50 is 1.47 µM in assay [1]; 1.25 µM in assay [2]; 1.2 µM in [3]; 0.464 µM in [4]; 1.46 µM in [5]; 1.64 µM in [6]. The GI50 in assay [7] is 1.07 µM; in assay [8], 0.653 µM; in [9] it was 0.198 µM; in assay [10], 0.56 µM. Further, the TGI in [1] is 3.03 µM; in assay [2] it was 2.55 µM; in [3], > 21.9 µM; in assay [4], 3.86 µM; in assay [5], 4.11 µM; in [6] it was 3.5 µM. The TGI is 64.2 µM in assay [7], 3.88 µM in assay [8], 0.48 µM in assay [9] and 1.77 µM in assay [10].

As for `CCN(Cc1cccc(F)c1F)c1ccc(CO)c(Cl)c1`, the GI50 was 16 µM in [1]; 18.5 µM in assay [2]; 2.32 µM in assay [3]; 13.6 µM in [4]; 0.157 µM in assay [5]; 0.284 µM in [6]. Besides, the GI50 is 18.8 µM in assay [7], 14.2 µM in assay [8], 0.127 µM in assay [9] and 11.2 µM in assay [10]. Moreover, the TGI was 34.2 µM in assay [1]; 35.9 µM in assay [2]; 39.7 µM in assay [3]; 51.6 µM in [4]; 12.6 µM in assay [5]; 25 µM in assay [6]. The TGI in assay [7] amounted to 43.7 µM; in [8] it was 48.3 µM; in [9], 1.24 µM; in [10] it was 23.4 µM.

Take `NCCN1C(=O)c2ccccc2C1(O)c1ccc(Cl)cc1` (stereo not drawn): the TGI was 27.2 µM in assay [1]; > 100 µM in assay [2]; 39.7 µM in assay [3]; > 100 µM in [4]; 32.6 µM in [5]; 55.3 µM in assay [6]. Also, the TGI in assay [7] was 36.6 µM; in [8], > 100 µM; in assay [9] it was > 100 µM; in assay [10] it was 31.3 µM.

Turning to `Oc1ccccc1C=Nc1ccccc1N=Cc1ccccc1O.[Cu+2]`, the GI50 is 6.52 µM in assay [1]; 3.24 µM in assay [2]; 2.09 µM in [3]; 3.16 µM in assay [4]; 2.34 µM in [5]; 5.91 µM in [6]. For the same molecule, the GI50 was 13.2 µM in assay [7], 2.48 µM in assay [8], 5.79 µM in [9] and 1.66 µM in [10]. For the same molecule, the TGI in assay [1] was 21.2 µM; in assay [2], 11.9 µM; in assay [3], 40.8 µM; in [4] it was 14 µM; in assay [5] it was 14.1 µM; in assay [6] it was 19.9 µM. The TGI in assay [7] was > 100 µM; in assay [8] it was 8.44 µM; in assay [9] it was 19 µM; in [10], 3.46 µM.

Source of the values: PubChem BioAssay (NCI).
